The structures appear in SMILES notation.

One assay has as its target T1, human P2X2/3 receptor (Homo sapiens, UniProt P56373+Q9UBL9).
T1 construct: expressed in transfected cells; host or cells: CHO-K1
T1 sequence (Q9UBL9 1-471): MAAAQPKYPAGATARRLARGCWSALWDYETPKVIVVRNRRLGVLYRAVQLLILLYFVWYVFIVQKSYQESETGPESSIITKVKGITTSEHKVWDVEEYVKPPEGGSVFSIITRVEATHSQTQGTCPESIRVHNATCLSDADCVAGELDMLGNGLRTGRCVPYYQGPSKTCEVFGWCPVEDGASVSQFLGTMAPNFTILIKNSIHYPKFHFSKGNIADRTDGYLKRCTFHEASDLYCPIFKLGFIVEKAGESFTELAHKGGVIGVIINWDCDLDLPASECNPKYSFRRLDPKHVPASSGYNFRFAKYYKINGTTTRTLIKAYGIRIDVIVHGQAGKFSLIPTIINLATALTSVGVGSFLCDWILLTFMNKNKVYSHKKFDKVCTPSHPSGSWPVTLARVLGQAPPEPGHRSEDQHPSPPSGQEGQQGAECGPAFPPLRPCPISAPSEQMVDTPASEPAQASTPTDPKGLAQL
T1 sequence (P56373 1-397): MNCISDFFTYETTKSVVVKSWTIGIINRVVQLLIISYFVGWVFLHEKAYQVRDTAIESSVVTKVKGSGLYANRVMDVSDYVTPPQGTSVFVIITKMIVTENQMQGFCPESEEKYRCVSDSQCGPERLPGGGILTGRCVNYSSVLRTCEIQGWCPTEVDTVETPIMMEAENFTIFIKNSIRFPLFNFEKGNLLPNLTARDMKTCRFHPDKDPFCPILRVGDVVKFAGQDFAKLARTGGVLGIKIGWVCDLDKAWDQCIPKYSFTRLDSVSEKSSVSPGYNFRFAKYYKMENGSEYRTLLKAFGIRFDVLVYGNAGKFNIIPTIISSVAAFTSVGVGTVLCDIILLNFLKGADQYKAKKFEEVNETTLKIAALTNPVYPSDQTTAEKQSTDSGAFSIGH
Briefly: P2X3/P2X2/3 FLIPR (Fluorometric Imaging Plate Reader) Assay, P2X2/3. The following applies: CHO-K1 cells transfected with human P2X2/3; agonist α,β-meATP 5 μM; Table 1; read-out: P2X2/3 pKi (converted). Format: cell-based. The essentials: (§1)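 Cells are dye-loaded with Fluo-3 AM, then exposed to test compound for 20 minutes at room temperature. Next, α,β-meATP is added (final 1 μM for rat P2X3, 5 μM for human P2X2/3 in CHO-K1), and the peak calcium fluorescence yields inhibition curves by nonlinear regression.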

The next assay has as its target T2, rat P2X3 receptor (Rattus norvegicus, UniProt P49654).
T2 construct: expressed in transfected cells; host or cells: CHO-K1
T2 sequence (P49654 1-397): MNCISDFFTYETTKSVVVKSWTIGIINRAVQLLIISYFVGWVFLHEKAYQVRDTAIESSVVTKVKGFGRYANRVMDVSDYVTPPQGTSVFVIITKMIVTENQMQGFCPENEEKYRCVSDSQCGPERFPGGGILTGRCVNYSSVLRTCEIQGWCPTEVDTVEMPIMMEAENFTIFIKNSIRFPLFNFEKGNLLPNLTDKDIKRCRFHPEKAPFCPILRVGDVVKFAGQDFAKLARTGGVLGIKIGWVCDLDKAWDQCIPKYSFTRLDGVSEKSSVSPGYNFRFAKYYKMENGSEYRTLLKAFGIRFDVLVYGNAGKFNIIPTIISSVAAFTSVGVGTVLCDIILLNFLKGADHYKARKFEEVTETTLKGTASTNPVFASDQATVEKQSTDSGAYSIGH
The assay is described as follows: P2X3/P2X2/3 FLIPR (Fluorometric Imaging Plate Reader) Assay, P2X3. Format: cell-based. As to conditions: CHO-K1 cells transfected with rat P2X3; agonist α,β-meATP 1 μM; Table 1; read-out: P2X3 pKi (converted). The method in brief: as §1

For the compound `Cc1ccc(-c2cc(-n3ncnc3C(C)C)cc(C(=O)N[C@@H](C)CO)c2F)nc1` [Compound 174, 2-Fluoro-N-((S)-2-hydroxy-1-methyl-ethyl)-5-(5-isopropyl-[1,2,4]triazol-1-yl)-3-(5-methyl-pyridin-2-yl)-benzamide], the Ki on human P2X2/3 receptor is 1620 nM; at rat P2X3 receptor it was 6.46 nM.

The record behind these values is patent publication US8440708B2, “Triazole-substituted arylamides as P2X3 and P2X2/3 antagonists” (Roche Palo Alto LLC, priority 2007, dated 2013).
